Measured values: the NIST ThermoML archive (doi:10.1016/j.fluid.2009.01.011)
± gives the expanded uncertainty stated by the source.

Assay: activity coefficient (dimensionless); of the first substance listed, at infinite dilution; xn = mol fraction of the nth substance listed
Conditions: Liquid, Chromatography, x1 = 0

SMILES	activity coefficient (298.15 K)	activity coefficient (308.15 K)	activity coefficient (318.15 K)	activity coefficient (328.15 K)	activity coefficient (338.15 K)	activity coefficient (348.15 K)	activity coefficient (358.15 K)	activity coefficient (368.15 K)
Cc1cccc(C)c1 [1,3-dimethylbenzene] + CCCC[N+]1(C)CCCC1.O=S(=O)([O-])C(F)(F)F	–	3.44 ± 0.15	3.45 ± 0.15	3.47 ± 0.15	3.48 ± 0.15	3.5 ± 0.15	3.51 ± 0.15	3.53 ± 0.16
Cc1ccccc1 [toluene] + CCCC[N+]1(C)CCCC1.O=S(=O)([O-])C(F)(F)F	2.16 ± 0.09	2.19 ± 0.1	2.22 ± 0.1	2.25 ± 0.1	2.27 ± 0.1	2.3 ± 0.1	2.32 ± 0.1	2.35 ± 0.1
C#CCCCCC [1-heptyne] + CCCC[N+]1(C)CCCC1.O=S(=O)([O-])C(F)(F)F	5.21 ± 0.23	5.3 ± 0.23	5.39 ± 0.24	5.47 ± 0.24	5.56 ± 0.25	5.64 ± 0.25	5.7 ± 0.25	5.78 ± 0.25
C1CCCCCCC1 [cyclooctane] + CCCC[N+]1(C)CCCC1.O=S(=O)([O-])C(F)(F)F	37.4 ± 1.7	34 ± 1.5	31.4 ± 1.4	29.1 ± 1.3	26.9 ± 1.2	25.1 ± 1.1	23.5 ± 1	22.2 ± 1
C1CCCCCC1 [cycloheptane] + CCCC[N+]1(C)CCCC1.O=S(=O)([O-])C(F)(F)F	29.3 ± 1.3	27 ± 1.2	24.9 ± 1.1	23.1 ± 1	21.6 ± 1	20.1 ± 0.9	18.9 ± 0.8	17.9 ± 0.8

Further lines, results first:

activity coefficient (298.15 K)	activity coefficient (308.15 K)	activity coefficient (318.15 K)	activity coefficient (328.15 K)	activity coefficient (338.15 K)	activity coefficient (348.15 K)	activity coefficient (358.15 K)	activity coefficient (368.15 K)	SMILES
1.05 ± 0.04	1 ± 0.04	0.948 ± 0.034	0.9 ± 0.033	0.862 ± 0.032	0.827 ± 0.032	0.791 ± 0.031	0.763 ± 0.031	CCO [ethanol] + CCCC[N+]1(C)CCCC1.O=S(=O)([O-])C(F)(F)F
95.2 ± 4.3	86.9 ± 3.9	79.4 ± 3.5	73.1 ± 3.3	67.2 ± 3	62.9 ± 2.8	58.4 ± 2.6	54.4 ± 2.4	CCCCCCCC [octane] + CCCC[N+]1(C)CCCC1.O=S(=O)([O-])C(F)(F)F
1.38 ± 0.05	1.39 ± 0.06	1.41 ± 0.06	1.42 ± 0.06	1.43 ± 0.06	1.44 ± 0.06	1.45 ± 0.06	1.46 ± 0.06	C1CCOC1 [tetrahydrofuran] + CCCC[N+]1(C)CCCC1.O=S(=O)([O-])C(F)(F)F
135 ± 6	122 ± 5	111 ± 5	100 ± 5	92.4 ± 4.1	85.2 ± 3.8	78.9 ± 3.5	73.3 ± 3.3	CCCCCCCCC [nonane] + CCCC[N+]1(C)CCCC1.O=S(=O)([O-])C(F)(F)F
195 ± 9	174 ± 8	157 ± 7	143 ± 6	130 ± 6	120 ± 5	110 ± 5	101 ± 5	CCCCCCCCCC [decane] + CCCC[N+]1(C)CCCC1.O=S(=O)([O-])C(F)(F)F
